Several values for one entry are separate records, joined by “and”; a condition that tells them apart may be missing. Identical values can stand only once. Toxic doses and inconclusive results are not listed. Rule as the data show it: active = T/C of 150% or more; inactive = T/C below 125%.
Tested on: L1210 leukemia ip in BDF1 mice, survival T/C
Test: NCI In Vivo Anticancer Drug Screen. Data for tumor model L1210 Leukemia (intraperitoneal) in B6D2F1 (BDF1) mice
Settings: endpoint: mean survival time, higher = longer survival
How it was run: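 In this screen, tumor-bearing mice given compound are compared to those given vehicle, and their survival values are reported as a treated-to-control quotient.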

[1] = dose: 100.0 mg/kg/injection, schedule: Q01DX001 (ip), vehicle: saline
[2] = dose: 100.0 mg/kg/injection, schedule: Q04DX003 (ip), vehicle: saline
[3] = dose: 200.0 mg/kg/injection, schedule: Q01DX001 (ip), vehicle: saline
[4] = dose: 200.0 mg/kg/injection, schedule: Q04DX003 (ip), vehicle: saline
[5] = dose: 400.0 mg/kg/injection, schedule: Q01DX001 (ip), vehicle: saline
[6] = dose: 400.0 mg/kg/injection, schedule: Q04DX003 (ip), vehicle: saline
[7] = dose: 50.0 mg/kg/injection, schedule: Q01DX009 (ip), vehicle: saline
[8] = dose: 200.0 mg/kg/injection, schedule: Q01DX009 (ip), vehicle: saline
[9] = dose: 100.0 mg/kg/injection, schedule: Q01DX009 (ip), vehicle: saline
[10] = dose: 100.0 mg/kg/injection, schedule: Q01DX001 (ip), vehicle: carboxymethylcellulose (CMC)
[11] = dose: 100.0 mg/kg/injection, schedule: Q01DX009 (ip), vehicle: carboxymethylcellulose (CMC)
[12] = dose: 100.0 mg/kg/injection, schedule: Q04DX002 (ip), vehicle: carboxymethylcellulose (CMC)
[13] = dose: 100.0 mg/kg/injection, schedule: Q04DX003 (ip), vehicle: carboxymethylcellulose (CMC)
[14] = dose: 200.0 mg/kg/injection, schedule: Q01DX001 (ip), vehicle: carboxymethylcellulose (CMC)
[15] = dose: 200.0 mg/kg/injection, schedule: Q01DX009 (ip), vehicle: carboxymethylcellulose (CMC)
[16] = dose: 200.0 mg/kg/injection, schedule: Q04DX002 (ip), vehicle: carboxymethylcellulose (CMC)
[17] = dose: 200.0 mg/kg/injection, schedule: Q04DX003 (ip), vehicle: carboxymethylcellulose (CMC)
[18] = dose: 400.0 mg/kg/injection, schedule: Q01DX001 (ip), vehicle: carboxymethylcellulose (CMC)
[19] = dose: 400.0 mg/kg/injection, schedule: Q04DX002 (ip), vehicle: carboxymethylcellulose (CMC)
[20] = dose: 400.0 mg/kg/injection, schedule: Q04DX003 (ip), vehicle: carboxymethylcellulose (CMC)
[21] = dose: 100.0 mg/kg/injection, schedule: Q04DX003 (ip), vehicle: Klucel (hydroxypropylcellulose) (HPC)
[22] = dose: 200.0 mg/kg/injection, schedule: Q04DX003 (ip), vehicle: Klucel (hydroxypropylcellulose) (HPC)
[23] = dose: 400.0 mg/kg/injection, schedule: Q04DX003 (ip), vehicle: Klucel (hydroxypropylcellulose) (HPC)
[24] = dose: 100.0 mg/kg/injection, schedule: Q01DX009 (ip), vehicle: Klucel (hydroxypropylcellulose) (HPC)
[25] = dose: 200.0 mg/kg/injection, schedule: Q01DX009 (ip), vehicle: Klucel (hydroxypropylcellulose) (HPC)

Measured: T/C

CCCCN(CCCC)CC(=O)Nc1ccc(C(=O)OCC(C)C)cc1
inactive: dose: 20.0 mg/kg/injection, schedule: Q01DX Z (ip), vehicle: saline 97 % of control | dose: 30.0 mg/kg/injection, schedule: Q01DX Z (ip), vehicle: saline 98 % of control | dose: 45.0 mg/kg/injection, schedule: Q01DX Z (ip), vehicle: saline 106 % of control | dose: 68.0 mg/kg/injection, schedule: Q01DX Z (ip), vehicle: saline 97 % of control

O=S(=O)(CC(Cl)c1ccccc1)c1ccc(Br)cc1 (configuration not stated)
inactive: [1] 94 % of control | [2] 94 % of control | [3] 92 % of control | [4] 96 % of control | [5] 92 % of control | [6] 94 % of control

Cc1nc(CON)cs1
inactive: [7] 92 % of control | [2] 100 % of control | [8] 90 % of control | [4] 92 % of control

CCC(=O)OC(CCN(C)C)(Cc1ccccc1)c1ccccc1 (configuration not stated)
inactive: dose: 25.0 mg/kg/injection, schedule: Q01DX009 (ip), vehicle: saline 100 % of control | [7] 95 % of control | [9] 101 % of control | [2] 93 % of control

O=C1OC(c2ccccc2)(c2cccc3ccccc23)CC1c1ccccc1 (configuration not stated)
inactive: [1] 98 % of control | [3] 98 % of control | [5] 89 % of control

CN(C)c1ccc(C=Nc2ccc(N(C)C)cc2)cc1
inactive: [10] 105 % of control | [11] 96 % of control and 92 % of control | [12] 102 % of control and 104 % of control | [13] 102 % of control | [14] 93 % of control | [15] 86 % of control and 88 % of control | [16] 98 % of control and 105 % of control | [17] 92 % of control | [18] 88 % of control | dose: 400.0 mg/kg/injection, schedule: Q01DX009 (ip), vehicle: carboxymethylcellulose (CMC) 86 % of control and 92 % of control | [19] 97 % of control and 100 % of control | [20] 92 % of control

C(C#CC1CCCCC1)#CC1CCCCC1
inactive: [9] 94 % of control | [8] 91 % of control | dose: 400.0 mg/kg/injection, schedule: Q01DX009 (ip), vehicle: saline 94 % of control

CC1(C)OC2C(N)OC(CO)C2O1 (configuration not stated)
inactive: [2] 95 % of control | [4] 110 % of control | [6] 104 % of control

ClCc1ccc2c(c1)OCO2
inactive: [21] 104 % of control | [22] 101 % of control | [23] 98 % of control

Cc1nc(SCc2ccccc2)[nH]c(=O)c1CC(C)O (configuration not stated)
inactive: [21] 104 % of control | [22] 97 % of control | [23] 104 % of control

O=[N+]([O-])c1ccc(/C=C\c2ccncc2)cc1
inactive: [10] 101 % of control | [11] 100 % of control | [12] 103 % of control and 108 % of control | [13] 100 % of control | [14] 105 % of control | [15] 98 % of control | [16] 100 % of control | [17] 115 % of control | [18] 95 % of control | [19] 100 % of control | [20] 104 % of control

O=C1OC(c2ccc([N+](=O)[O-])cc2)=N/C1=C\C=C\c1ccccc1
inactive: [24] 98 % of control | [25] 96 % of control | dose: 400.0 mg/kg/injection, schedule: Q01DX009 (ip), vehicle: Klucel (hydroxypropylcellulose) (HPC) 103 % of control

CCOC(=O)C(Br)C(Br)c1ccccc1 (configuration not stated)
inactive: [2] 103 % of control | [4] 108 % of control | [6] 98 % of control

CN(C)N=Nc1cc(Cl)cc(C(N)=O)c1Cl
inactive: dose: 100.0 mg/kg/injection, schedule: Q01DX001 (ip), vehicle: saline with Tween-80 106 % of control | dose: 100.0 mg/kg/injection, schedule: Q01DX009 (ip), vehicle: saline with Tween-80 103 % of control | dose: 200.0 mg/kg/injection, schedule: Q01DX001 (ip), vehicle: saline with Tween-80 101 % of control | dose: 200.0 mg/kg/injection, schedule: Q01DX009 (ip), vehicle: saline with Tween-80 121 % of control | dose: 400.0 mg/kg/injection, schedule: Q01DX001 (ip), vehicle: saline with Tween-80 119 % of control

NC1C(O)C(N)C(O)C(O)C1O (configuration not stated)
inactive: dose: 100.0 mg/kg/injection, schedule: Q04DX003 (ip), vehicle: saline sonified 97 % of control | dose: 200.0 mg/kg/injection, schedule: Q04DX003 (ip), vehicle: saline sonified 97 % of control | dose: 400.0 mg/kg/injection, schedule: Q04DX003 (ip), vehicle: saline sonified 95 % of control

OC/C=C/Cl
inactive: dose: 25.0 mg/kg/injection, schedule: Q01DX001 (ip), vehicle: acetone 106 % of control | dose: 50.0 mg/kg/injection, schedule: Q01DX001 (ip), vehicle: acetone 97 % of control | dose: 100.0 mg/kg/injection, schedule: Q01DX001 (ip), vehicle: acetone 98 % of control

Nc1ccc(N2CCNCC2)cc1
inactive: [7] 101 % of control | [9] 107 % of control | [8] 111 % of control

CCOC(=O)CC(C)(C)C1CC1
inactive: dose: 50.0 mg/kg/injection, schedule: Q01DX001 (ip), vehicle: saline 91 % of control | [1] 96 % of control | [3] 96 % of control | [5] 94 % of control

CCc1ccc(NC(=O)NC(C)C)cc1
inactive: dose: 50.0 mg/kg/injection, schedule: Q01DX009 (ip), vehicle: Klucel (hydroxypropylcellulose) (HPC) 113 % of control | [24] 91 % of control | [21] 103 % of control | [25] 103 % of control | [22] 92 % of control

COP1(=O)OCC(C)CO1 (configuration not stated)
inactive: [1] 102 % of control | [3] 93 % of control | [5] 98 % of control

CN(C)/N=N/c1nc[nH]c1C(N)=O.[Cl][Cu][Cl]
inactive: dose: 9.5 mg/kg/injection, schedule: Q01DX001 (ip), vehicle: saline 103 % of control | dose: 19.0 mg/kg/injection, schedule: Q01DX001 (ip), vehicle: saline 95 % of control | dose: 38.0 mg/kg/injection, schedule: Q01DX001 (ip), vehicle: saline 101 % of control

C/C(=N/O)c1ccc(C)s1
inactive: [10] 94 % of control | [14] 100 % of control | [18] 100 % of control

CCN(CC)CCOc1ccc(C=Nc2ccc(I)cc2)cc1
inactive: dose: 100.0 mg/kg/injection, schedule: Q04DX003 (ip), vehicle: other 97 % of control | dose: 200.0 mg/kg/injection, schedule: Q04DX003 (ip), vehicle: other 98 % of control | dose: 400.0 mg/kg/injection, schedule: Q04DX003 (ip), vehicle: other 95 % of control
